Data from article PMC4628894 (Bioorganic & medicinal chemistry letters, 2015).
Where two headings read alike, the source gives them in different places.

Assays:
[1] = target: rat brain CRF1 receptor; conditions: read-out: IC50, rat brain CRF1 receptor; previous report; cited from earlier work
[2] = target: T1, human CRF1 receptor (Homo sapiens, UniProt P34998); format: binding; conditions: for fold loss of binding affinity at CRF1 relative to 2: compared to compound 2; for fold gain in binding affinity at CRF1 relative to 17: compared to compound 17; for fold increase in binding affinity at CRF1 relative to 21: compared to compound 21
T1 sequence (P34998 24-415): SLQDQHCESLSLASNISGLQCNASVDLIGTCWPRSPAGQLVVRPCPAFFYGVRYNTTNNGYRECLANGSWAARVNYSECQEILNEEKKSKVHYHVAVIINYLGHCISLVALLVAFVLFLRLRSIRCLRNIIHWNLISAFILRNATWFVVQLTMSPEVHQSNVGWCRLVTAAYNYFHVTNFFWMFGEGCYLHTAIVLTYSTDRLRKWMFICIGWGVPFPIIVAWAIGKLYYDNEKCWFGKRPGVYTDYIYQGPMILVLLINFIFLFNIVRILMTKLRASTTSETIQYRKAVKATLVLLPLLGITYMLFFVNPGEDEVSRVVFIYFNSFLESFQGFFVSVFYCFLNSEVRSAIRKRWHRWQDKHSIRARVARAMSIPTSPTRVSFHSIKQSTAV

[3] = target: CRF1 receptor; conditions: read-out: Ki for the CRF1 receptor, previously reported, cited from earlier work

| fold increase in binding affinity at CRF1 relative to 21 [2] | SMILES | IC50 [1] [nM] | further results |
| --- | --- | --- | --- |
| – | CCCCN(CC)c1cc(C)nc2c1NC(=O)CN2c1ccc(C(C)C)cc1Br [Compound 2] | 0.7 | – |
| – | CCN(C)c1cc(C)nc2c1NC(=O)CN2c1ccc(C(C)C)cc1Br [Compound 18] | – | fold loss of binding affinity at CRF1 relative to 2 [2]: ~ 6.8 fold; fold gain in binding affinity at CRF1 relative to 17 [2]: ~ 11 fold |
| ~ 8 fold | CCN(CC)c1cc(C)nc2c1N(CCF)C(=O)CN2c1ccc(C(C)C)cc1Br [Compound 22] | – | – |
| – | CCCCN(CC)c1cc(C)nc2c1NC(=O)CN2c1ccc(Cl)cc1Cl [Compound 6] | 0.49 | – |
| – | Cc1cc(N(C)C)c2c(n1)N(c1ccc(C(C)C)cc1Br)CC(=O)N2 [Compound 17] | – | fold loss of binding affinity at CRF1 relative to 2 [2]: ~ 75 fold |
| – | Cc1cc(N(C)C)c2c(n1)N(c1ccc(C(C)C)cc1Br)CC(=O)N2CCF [Compound 21] | – | fold gain in binding affinity at CRF1 relative to 17 [2]: ~ 3 fold |
| – | CCCCN(CC)c1cc(C)nc2c1NC(=O)CN2c1ccc(OC)cc1C [Compound 9] | 0.92 | – |
| ~ 2.7 fold | Cc1cc(N(C)C)c2c(n1)N(c1ccc(C(C)C)cc1Br)CC(=O)N2CCCCF [Compound 24] | – | – |
| ~ 4 fold | Cc1cc(N(C)C)c2c(n1)N(c1ccc(C(C)C)cc1Br)CC(=O)N2C/C=C/CF [Compound 23] | – | – |
| – | CCCN(CCC)c1cc(C)nc2c(-c3cnc(N(C)C)cc3C)c(C)nn12 [Compound R121919] | – | Ki ([3]; ref 26): 3.5 nM; Ki ([3]; ref 27): 3 ± 0.16 nM |
